According to US8975289B2, “Benzyl aralkyl ether compounds, method for preparing same, intermediate compounds, use of said compounds, method for treatment and/or prevention, pharmaceutical composition and medicament containing same” (priority 2009, dated 2015):
Converted amounts (≈) assume the structure as drawn.

Columns and labels:
Format in all cases: cell-based
[1] = test system: Microsporum gypseum 40051; experiment: Broth microdilution MIC (M38-A), filamentous fungi, strain XII; conditions: Nannizzia gypsea
Protocol: (§1) For the experiments of the present invention, the dermatophyte-type fungi strains that were obtained from clinical isolates and laboratory isolates, as described in Table 2 as follows, were used:
(§2) The fungal strains were grown on agar potato medium in a sloping chute at a temperature of 30° C. for a period of 7 to 15 days.
(§3) For the experiments, the compound 1-[2-(2,4-dichlorophenyl)-2-{[4-(trifluoromethyl)benzyl]oxy}ethyl]-1H-imidazole (BL-123) in the form of its nitrate salt and miconazole nitrate were used. Both compounds were dissolved in dimethyl sulfoxide (DMSO) to match the final concentration of the compound equal to or less than 1%.
(§4) The methodology used to test the sensitivity of the agent was of broth microdilution according to the method described in Standard M38-A (Reference method for broth dilution tests for determining the sensitivity to antifungal therapy for filamentous fungi; NCCLS, volume 22 No. 16, USA, 2008) as follows.
(§5) The fungus was cultivated pursuant to item 4.1. To the tubes wherein the fungi were grown, 5 mL of saline solution were added in order to extract the fungi from the agar surface. Then, this homogeneous suspension was transferred to a new tube and the colony-forming units (CFUs) were quantified according to counting methods: (i) in Sabouraud dextrose agar plates and (ii) in a Neubauer chamber.
(§6) Then, the fungi strains listed in Table 2 were inoculated in duplicate in a 96-well plate. There were used inocula of from 2 to 6×10^3 CFU/mL of fungi, per well, in a total volume of 0.2 mL of RPMI-1640 (containing L-glutamine and without bicarbonate) buffered at pH 7.0 with MOPS (acid 3-(N-morpholine) 15 propanesulfonic). The procedure was performed in a laminar flow.
(§7) The compounds to be tested were added in a serial dilution, in duplicate, in final concentrations of 16 μg/mL; 8 μg/mL; 4 μg/mL; 2 μg/mL; 1 μg/mL; 0.5 μg/mL; 0.25 μg/mL; 0.125 μg/mL; 0.0625 μg/mL; or 0.03125 μg/mL in culture medium present in each well.
(§8) The incubation of fungi with these compounds was performed by 4, 5, 6 and 7 days at temperatures from 30 to 35° C.
(§9) The fungi quantification was carried out with the growth of fungi in each well being compared to the growth occurred in the negative control by means of a mirror reading. The negative control is represented by fungi grown in culture medium in the absence of the tested compounds. The methodology of this comparison is the numerical rating to which the microdilution well was submitted. […]

[2] = test system: Trichophyton verrucosum 381; experiment: Broth microdilution MIC (M38-A), filamentous fungi, strain IV
Protocol: as §1, §2, §3, §4, §5, §6, §7, §8, §9

[3] = test system: Trichophyton verrucosum 381; experiment: Broth microdilution MIC (M38-A), filamentous fungi, strain VII; conditions: for MIC: Trichophyton verrucosum; for Resistance or sensitivity of the strain to the agent (in words): clinical isolate strain VII
Protocol: as §1, §2, §3, §4, §5, §6, §7, §8
(§10) The fungi quantification was carried out with the growth of fungi in each well being compared to the growth occurred in the negative control by means of a mirror reading. The negative control is represented by fungi grown in culture medium in the absence of the tested compounds. The methodology of this comparison is the numerical rating to which the microdilution well was submitted. In this methodology, value 4 corresponds to no reduction of growth, value 3 corresponds to a slight reduction in growth or approximately 75% of the growth of the negative control, value 2 corresponds to a standout reduction in growth or approximately 50% of growth of negative control; value 1 corresponds to a slight growth or approximately 25% of the growth of the negative control, and value 0 corresponds to optically clear or absence of growth.
(§11) In this experiment, the minimum inhibitory concentration (MIC) is considered as the lowest concentration of the agent capable of inhibiting at least 80% of the growth of colony-forming units (CFUs).

[4] = test system: Microsporum canis 373; experiment: Broth microdilution MIC (M38-A), filamentous fungi, strain VI
Protocol: as §1, §2, §3, §4, §5, §6, §7, §8, §9

[5] = test system: Aspergillus Niger 16404; experiment: Broth microdilution MIC (M38-A), filamentous fungi, strain I; conditions: for MIC: Aspergillus niger; for Resistance or sensitivity of the strain to the agent (in words): clinical isolate strain I
Protocol: as §1, §2, §3, §4, §5, §6, §7, §8, §10, §11

[6] = test system: Candida parapsilosis 22019; experiment: Broth microdilution MIC (M38-A), filamentous fungi test, strain IX; conditions: 96 h; strain IX 22019, reading Day 4, average of four experiments
Protocol: as §1, §2, §3, §4
The fungus was cultivated pursuant to item 4.1. […] Then, this homogeneous suspension was transferred to a new tube and the colony-forming units (CFUs) were quantified according to counting methods: (i) in Sabouraud dextrose agar plates and (ii) in a Neubauer chamber. […]
The fungi quantification was carried out with the growth of fungi in each well being compared to the growth occurred in the negative control by means of a mirror reading. […]

[7] = test system: Candida parapsilosis 22019; experiment: Broth microdilution MIC (M27-A2), yeast, strain XV; conditions: strain XV 22019, 48 hours incubation; read-out: MIC
Protocol: For the experiments of the present invention (i) yeast strains obtained from clinical isolates and laboratory isolates, and (ii) bacterial strains obtained from laboratory isolates were used, as described in Table 5 as follows. The yeast strains were grown in culture medium Sabouraud Dextrose Agar maintained at a temperature of 35° C. for 48 hours. […] The compounds were dissolved in dimethyl sulfoxide (DMSO) to match the final concentration of the compound equal to or less than 1%. The methodology used to test the sensitivity of the agent was broth microdilution according to the method described in Standard M27-A2 (Reference method for broth dilution tests to determine the sensitivity of yeasts to antifungal therapy-second edition, NCCLS, volume 22 number 15, USA, 2002) as follows. […] Then the suspensions were diluted in culture medium RPMI-1640 (buffered with MOPS 0.165 mol/l) at a final concentration of 50 to 2500 CFU/mL. The diluted suspensions were inoculated in duplicate in a 96-well plate. The procedure was performed in a laminar flow. […] The incubation of fungi with these compounds was carried out for 48 hours at temperature of 30 to 35° C. […] We have agreed in this experiment that the turbid medium is the result of microbial growth and the presence of deposit and a clear medium represents the absence of microbial growth. The minimum inhibitory concentration (MIC) was defined as the lowest tested drug concentration that prevents any degree of […] growth.

[8] = 96 h, strain XII 40051, reading Day 4, average of four experiments
[9] = 168 h, strain XII 40051, reading Day 7, average of four experiments
[10] = 96 h, strain IV 381, reading Day 4, average of four experiments
[11] = 168 h, strain IV 381, reading Day 7, average of four experiments
[12] = 96 h, strain VII 381, reading Day 4, average of four experiments
[13] = 168 h, strain VII 381, reading Day 7, average of four experiments
[14] = 96 h, strain VI 373, reading Day 4, average of four experiments
[15] = 168 h, strain VI 373, reading Day 7, average of four experiments
[16] = NIGER16404, 96 h, strain I 16404, reading Day 4, average of four experiments, >=80% growth inhibition
[17] = NIGER16404, 168 h, strain I 16404, reading Day 7, average of four experiments

Row | Compound | MIC [1, 8] [µg/mL] | MIC [1, 9] [µg/mL] | MIC [2, 10] [µg/mL] | MIC [2, 11] [µg/mL] | MIC [3, 12] [µg/mL] | MIC [3, 13] [µg/mL] | Resistance or sensitivity of the strain to the agent (in words) [3] | MIC [4, 14] [µg/mL] | MIC [4, 15] [µg/mL] | MIC [5, 16] [µg/mL] | MIC [5, 17] [µg/mL] | Resistance or sensitivity of the strain to the agent (in words) [5] | MIC [6] [µg/mL] | MIC [7] [µg/mL]
1 | FC(F)(F)c1ccc(COC(Cn2ccnc2)c2ccc(Cl)cc2Cl)cc1 (stereo not shown) [BL-123, 1-[2-(2,4-dichlorophenyl)-2-{[4-(trifluoromethyl)benzyl]oxy}ethyl]-1H-imidazole] | 0.03 (≈ 0.0722 µM) | 0.03 (≈ 0.0722 µM) | > 16 | > 16 | 4 (≈ 9.63 µM) | > 16 | sensitive | 0.125 (≈ 0.301 µM) | 0.5 (≈ 1.2 µM) | 8 (≈ 19.3 µM) | 8 (≈ 19.3 µM) | sensitive | 2 (≈ 4.82 µM) | 4 (≈ 9.63 µM)
2 | Clc1ccc(COC(Cn2ccnc2)c2ccc(Cl)cc2Cl)c(Cl)c1 (stereo not shown) [Miconazole, miconazole, reference compound] | 0.03 (≈ 0.0721 µM) | 0.06 (≈ 0.144 µM) | > 16 | > 16 | > 16 | > 16 | resistant | 0.5 (≈ 1.2 µM) | 1 (≈ 2.4 µM) | > 16 | > 16 | resistant | 1 (≈ 2.4 µM) | 2 (≈ 4.81 µM)
